From the NIST ThermoML archive (doi:10.1016/j.jct.2004.12.004)
Numbers after ± are expanded uncertainties.

Assay: mn = molality of the nth substance listed, in mol/kg
Conditions: 350 kPa, Liquid, Extra sensitive DSC

OC[C@H]1O[C@@H](O[C@H]2[C@H](O)[C@@H](O)[C@H](O)O[C@@H]2CO)[C@H](O)[C@@H](O)[C@@H]1O [D-cellobiose] + O
apparent molar heat capacity [J/K/mol]
Conditions | m1 = 0.03222 | m1 = 0.05175 | m1 = 0.07986 | m1 = 0.09996 | m1 = 0.1501 | m1 = 0.3084
278.15 K | 562.9 ± 33 | 563 ± 21 | 562 ± 14 | 561.2 ± 12 | 563 ± 8.4 | 566.4 ± 5
283.15 K | 593 ± 33 | 592.8 ± 21 | 591.5 ± 14 | 590.9 ± 12 | 592 ± 8.4 | 594.5 ± 5
288.15 K | 619.4 ± 33 | 618.8 ± 21 | 617.3 ± 14 | 616.9 ± 12 | 617.5 ± 8.5 | 619.6 ± 5.1
293.15 K | 641.7 ± 33 | 641.1 ± 21 | 639.4 ± 14 | 639.2 ± 12 | 639.5 ± 8.6 | 641.1 ± 5.2
298.15 K | 661.3 ± 33 | 660.7 ± 21 | 658.6 ± 14 | 658.8 ± 12 | 658.7 ± 8.6 | 660.1 ± 5.2
303.15 K | 678.3 ± 33 | 677.8 ± 21 | 675.4 ± 15 | 676.2 ± 12 | 675.7 ± 8.7 | 676.9 ± 5.3
308.15 K | 693.2 ± 33 | 692.9 ± 21 | 690.6 ± 15 | 691.5 ± 12 | 690.9 ± 8.7 | 691.8 ± 5.3
313.15 K | 706.5 ± 33 | 706.5 ± 22 | 704.1 ± 15 | 705 ± 12 | 704.3 ± 8.8 | 705.1 ± 5.4
318.15 K | 718.8 ± 33 | 718.9 ± 22 | 716.6 ± 15 | 717.5 ± 12 | 716.7 ± 8.8 | 717.3 ± 5.4
323.15 K | 730 ± 33 | 730.1 ± 22 | 728 ± 15 | 728.9 ± 12 | 728.1 ± 8.9 | 728.5 ± 5.4
328.15 K | 740.4 ± 33 | 740.7 ± 22 | 738.6 ± 15 | 739.5 ± 12 | 738.7 ± 8.9 | 739 ± 5.5
333.15 K | 750.3 ± 33 | 750.6 ± 22 | 748.6 ± 15 | 749.5 ± 12 | 748.7 ± 8.9 | 748.9 ± 5.5
338.15 K | 759.6 ± 33 | 759.9 ± 22 | 758 ± 15 | 758.9 ± 12 | 758.1 ± 8.9 | 758.3 ± 5.5
343.15 K | 768.2 ± 33 | 768.6 ± 22 | 766.7 ± 15 | 767.6 ± 12 | 766.7 ± 9 | 766.9 ± 5.6
348.15 K | 776.4 ± 33 | 776.6 ± 22 | 774.8 ± 15 | 775.8 ± 12 | 774.9 ± 9 | 775 ± 5.6
353.15 K | 783.8 ± 33 | 784.2 ± 22 | 782.5 ± 15 | 783.5 ± 12 | 782.6 ± 9 | 782.7 ± 5.6
358.15 K | 791.1 ± 33 | 791.5 ± 22 | 789.8 ± 15 | 790.8 ± 12 | 789.9 ± 9 | 789.9 ± 5.6
363.15 K | 797.8 ± 33 | 798.3 ± 22 | 796.7 ± 15 | 797.8 ± 12 | 796.8 ± 9.1 | 796.8 ± 5.6
368.15 K | 803.8 ± 34 | 804.6 ± 22 | 803 ± 15 | 804.1 ± 12 | 803.1 ± 9.1 | 803.1 ± 5.7
373.15 K | 809.8 ± 34 | 810.7 ± 22 | 809 ± 15 | 810.1 ± 12 | 809.2 ± 9.1 | 809.1 ± 5.7
378.15 K | 815 ± 34 | 816.2 ± 22 | 814.6 ± 15 | 815.8 ± 12 | 814.7 ± 9.1 | 814.7 ± 5.7
383.15 K | 819.8 ± 34 | 821.3 ± 22 | 819.7 ± 15 | 821.4 ± 12 | 820 ± 9.1 | 819.9 ± 5.7
388.15 K | 823 ± 34 | 825.3 ± 22 | 824.1 ± 15 | 827.6 ± 12 | 824.9 ± 9.1 | 824.8 ± 5.7
393.15 K | 826.1 ± 34 | 828.7 ± 22 | 827.9 ± 15 | 833 ± 12 | 829.1 ± 9.2 | 829.2 ± 5.7
